Details of assay [1]: method as in Rajagopal et al., 2024. Particulars: ref Rajagopal et al., 2024, cited from earlier work.
Assay [2] concerns dLight1.3b. As to the kind of experiment: Cue-reward Pavlovian conditioning with NAc dLight1.3b photometry. It counts as in vivo, mouse. As to the method:
(§1) After habituating mice to the experimental chamber (4 consecutive days for 5–10 min) mice were food restricted to 90% ad libitum body weight. […] During learning sessions, the delay between CS and US was increased every training day from 2 to 10 seconds until mice became expert. […] After i.p. injection, mice were placed into an operant chamber. 3–4 electric footshocks (0.4 mA for 1 second) were delivered 10 to 25 min post vehicle or DETQ with variable intervals (randomly chosen from a uniform distribution between 240 and 360 seconds or between 120 and 240 seconds) without predictive cues. Mouse freezing behavior was monitored with a video camera (C310 Logitech,10 frames per second) positioned above the recording chamber and controlled by the Synapse software. […] Freezing was defined as the complete cessation of all movement for at least 1 s during a 25-min testing duration.
For long-term recordings during optogenetic stimulation or chemogenetic inhibition linear fit was calculated across the entire recording or across the vehicle epoch; for event-related experiments fit was performed on fluorescent data obtained in the −60 to +60 s around opto events or −5 to −1 s around behavioral events. […] DA event-related responses were quantified by computing the value at the transient’s peak value and the AUC in the 0 to 10 s or 0 to 60 s period post-event onset. […] The maximal peak value of Veh-normalized ΔF/F0 after opto-onset was plotted over time and the plateau of maximal response was determined by averaging peak opto responses 5, 10, 15 and 20 min post-DETQ. We then looked at trials between 5 and 65 min post-DETQ to determine which trials belonged to a ‘temporal window for stable imaging’. […] AUC of the baseline was calculated within the +5 to +40 minutes time window post ip injection. For detection of spontaneous DA peaks the calculated ΔF/F0 was smoothed with a 50 datapoints (410 milliseconds) moving window, and the built-in Matlab function findpeaks was applied, with the threshold for minimal peak prominence set to 0.5% ΔF/F0.

Assay [3] concerns dLight1.3b. As to the kind of experiment: In vivo single-fiber photometry of dLight1.3b baseline in freely-moving mice. More on the design: species or system mouse. To be noted: DETQ 10 mg/kg i.p. As to the method: For combined locomotion/photometry experiments in the open field (OF) in tethered mice, a 50 × 50 cm arena was used. Fiber photometry was conducted using a Doric photometry rig combined with a filter/mirror minicube set (Doric Lenses), as above. […] Data were sampled at 122 Hz. […] Mice were habituated to the chamber for 3 consecutive days (30 minutes per day). On experimental days, locomotor activity was video recorded and synchronized with fiber photometry signal recording. […] The OF chamber was cleaned with ethanol and water between mice. Recording sessions were repeated at 48 hours intervals. Mouse behavior as well as photometry signals were analyzed with a custom-written MATLAB script. Mouse locomotion was computed using the body center point of the animal. The center zone of the arena was defined automatically during behavior data analysis as the 25 × 25 cm square with the central point aligned to the center of the open field. […] Videos were recorded with a Logitech C270 camera and analyzed with DeepLabCut (version 2.1.8.2)[84] on an existing open field network. Representative traces were generated with the Anymaze (v7.2) software (Stoelting Co.).

The test system of assay [4] is dLight1.3b. As to the kind of experiment: Unpredicted reward or footshock with PFC dLight1.3b photometry. It counts as in vivo, mouse. As to the method: as §1
For long-term recordings during optogenetic stimulation or chemogenetic inhibition linear fit was calculated across the entire recording or across the vehicle epoch; for event-related experiments fit was performed on fluorescent data obtained in the −60 to +60 s around opto events or −5 to −1 s around behavioral events. […] DA event-related responses were quantified by computing the value at the transient’s peak value and the AUC in the 0 to 10 s or 0 to 60 s period post-event onset. […] The maximal peak value of Veh-normalized ΔF/F0 after opto-onset was plotted over time and the plateau of maximal response was determined by averaging peak opto responses 5, 10, 15 and 20 min post-DETQ. We then looked at trials between 5 and 65 min post-DETQ to determine which trials belonged to a ‘temporal window for stable imaging’. […] Average ΔF/F0 in the 10–20 min post vehicle injection, 0–10 min post DETQ/Veh and 2–12 min post J60/Veh were computed. […] For weekly DETQ injection, AUC was calculated in the relevant drug epoch (Veh, DETQ) and normalized against the duration of that epoch (Veh: 10 min, DETQ: 50 min). […] AUC of the baseline was calculated within the +5 to +40 minutes time window post ip injection. For detection of spontaneous DA peaks the calculated ΔF/F0 was smoothed with a 50 datapoints (410 milliseconds) moving window, and the built-in Matlab function findpeaks was applied, with the threshold for minimal peak prominence set to 0.5% ΔF/F0.

Setting [5] is: NAc, DETQ 10 mg/kg vs vehicle days.

Read-outs that look alike come from different tables or passages of the source.

In the case of `C[C@H]1c2cccc(C(C)(C)O)c2C[C@H](CO)N1C(=O)Cc1c(Cl)cccc1Cl` [DETQ, 2-(2,6-dichlorophenyl)-1-((1S,3R)-3-(hydroxymethyl)-5-(2-hydroxypropan-2-yl)-1-methyl-3,4-dihydroisoquinolin-2(1H)-yl)ethan-1-one], the “deficits in Novel Object Recognition and Social Interaction” value in assay [1] (aged hD1 mice, PO 3-10 mg/kg) is “fully reversed these deficits”. In assay [1] (aged wild type mice), the “deficits in Novel Object Recognition and Social Interaction” value is recorded as “failed to reverse these deficits”. In addition, the “latency to lick and overall licking activity” value in the assay with dLight1.3b [2] (DETQ 10 mg/kg) is given as “not affected”. In addition, in the assay with dLight1.3b [2] (setting [5]), the “enhancement factor of CS-associated DA peak amplitude” value was “approximately 2 fold” and the “enhancement factor of US-associated DA peak amplitude” value is approximately 1.5 fold. For the same compound, in the assay on dLight1.3b [3] (NAc), the “increase in sensor baseline” value is 15–20 % ∆F/F0. In addition, the “increase in sensor baseline” value with dLight1.3b [3] (PFC) was 2–4 % ∆F/F0. Further, in the assay with dLight1.3b [4] (PFC, unpredicted reward), the “increase in the average peak amplitude vs. Vehicle” value was 2 fold and the “single trials with detected response to reward” value is recorded as 90.91 ± 1.40%. Also, the “amplitude of DA signals during unexpected footshocks” value with dLight1.3b [4] (PFC, vs interleaved vehicle days) is reported as “significantly larger”. Besides, in the assay with dLight1.3b [4] (mouse, in vivo), the “response to footshocks (freezing)” value was “not affected”. Besides, the licking duration result in the assay with dLight1.3b [4] (unpredicted reward) is “remained unchanged”.
